This note sets out measurements from patent US10975056B2 (GlaxoSmithKline Intellectual Property Development Limited, priority 2016, dated 2021).

In assay [1] the test system is erythroid progenitor cells (EPCs). Kind of assay: Fetal hemoglobin (HbF) ELISA in day 7 erythroid progenitor cells.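 Note: for fetal hemoglobin induction normalized to vehicle-treated cells.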 It is filed as cell-based, human. As to conditions: Homo sapiens, Erythroid progenitor cell, HbF ELISA, day 7 EPCs, 5 days; read-out: EPC ELISA (pEC50 category) (converted). The method in brief:
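Day 7 EPCs from human bone marrow CD34+ cells were plated at 1,000 cells/well in media with 3 U/mL rhEPO. They were exposed to a 22-point dilution ([…]) for 5 days at 37 °C. Lysate HbF was measured by sandwich ELISA (OD450) and normalized to DMSO control wells.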

For another assay, the target named is DNMT1 (Homo sapiens, UniProt P26358). Kind of assay: DNMT1 biochemical activity, breaklight assay and/or SPA assay.
[2] abbreviates: binned activity in either the breaklight or the SPA assay, read-out: DNMT1 BioChemical (pIC50 category) (converted).
[3] abbreviates: breaklight assay and/or SPA assay, repeated experimental runs, read-out: average pIC50 against DNMT1 (converted).
Where [4] appears, read: binned activity in either the breaklight or the SPA assay.
The mark [5] stands for this setting: breaklight assay and/or SPA assay, repeated experimental runs.

Each structure is given as a SMILES string. “And” between values parts separate entries of the source, which are not always exact repeats. Equal entries are not always repeated. Structures can show the parent of a compound that is named as a salt. Where two headings read alike, the source gives them in different places.

DNMT1, sequence (P26358 whole entry, looked up): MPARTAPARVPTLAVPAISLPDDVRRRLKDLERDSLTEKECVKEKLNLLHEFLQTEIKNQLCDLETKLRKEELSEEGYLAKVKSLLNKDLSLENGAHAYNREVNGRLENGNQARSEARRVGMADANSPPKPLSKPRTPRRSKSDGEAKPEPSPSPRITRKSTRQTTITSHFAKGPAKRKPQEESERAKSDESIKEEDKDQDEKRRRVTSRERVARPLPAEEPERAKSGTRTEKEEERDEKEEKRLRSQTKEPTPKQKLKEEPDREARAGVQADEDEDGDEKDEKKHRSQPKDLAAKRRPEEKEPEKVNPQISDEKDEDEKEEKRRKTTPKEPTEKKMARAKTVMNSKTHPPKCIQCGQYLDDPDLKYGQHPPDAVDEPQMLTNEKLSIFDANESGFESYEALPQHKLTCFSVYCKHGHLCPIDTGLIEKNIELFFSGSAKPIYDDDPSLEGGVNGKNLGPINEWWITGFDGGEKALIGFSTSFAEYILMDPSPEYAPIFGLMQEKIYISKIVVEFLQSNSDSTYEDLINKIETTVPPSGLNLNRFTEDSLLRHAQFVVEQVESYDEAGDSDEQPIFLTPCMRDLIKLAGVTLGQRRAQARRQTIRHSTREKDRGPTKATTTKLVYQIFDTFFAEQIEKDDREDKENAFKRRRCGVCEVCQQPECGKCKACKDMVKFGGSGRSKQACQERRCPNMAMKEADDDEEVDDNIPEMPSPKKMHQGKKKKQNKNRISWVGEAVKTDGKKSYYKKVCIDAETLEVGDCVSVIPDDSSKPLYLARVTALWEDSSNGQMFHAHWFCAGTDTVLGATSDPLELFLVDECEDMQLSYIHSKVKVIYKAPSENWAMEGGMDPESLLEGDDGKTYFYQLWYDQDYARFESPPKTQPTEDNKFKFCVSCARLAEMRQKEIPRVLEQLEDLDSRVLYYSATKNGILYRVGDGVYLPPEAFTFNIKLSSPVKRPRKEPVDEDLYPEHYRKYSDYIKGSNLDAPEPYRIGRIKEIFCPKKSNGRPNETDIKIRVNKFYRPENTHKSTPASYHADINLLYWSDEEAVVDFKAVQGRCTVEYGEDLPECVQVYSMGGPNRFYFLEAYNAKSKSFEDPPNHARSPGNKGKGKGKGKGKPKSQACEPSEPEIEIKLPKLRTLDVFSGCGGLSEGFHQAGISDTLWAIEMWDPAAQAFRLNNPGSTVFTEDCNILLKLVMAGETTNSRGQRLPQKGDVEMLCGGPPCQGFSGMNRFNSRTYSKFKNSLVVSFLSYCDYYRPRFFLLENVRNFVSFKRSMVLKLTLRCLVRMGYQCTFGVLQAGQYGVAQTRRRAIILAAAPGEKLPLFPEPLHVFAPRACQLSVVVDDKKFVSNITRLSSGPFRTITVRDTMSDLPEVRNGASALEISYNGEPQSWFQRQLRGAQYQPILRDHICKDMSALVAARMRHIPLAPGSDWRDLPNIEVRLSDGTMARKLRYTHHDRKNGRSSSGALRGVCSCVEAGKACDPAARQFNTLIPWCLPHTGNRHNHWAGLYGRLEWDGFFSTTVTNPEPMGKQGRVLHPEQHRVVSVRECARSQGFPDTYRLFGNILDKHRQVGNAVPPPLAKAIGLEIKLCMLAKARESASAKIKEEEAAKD

For the compound `CCc1c(C#N)c(SCc2ccc(-c3cccnc3)cc2)nc(N2CCC(N3CCCC3)CC2)c1C#N` [Example 337, 4-Ethyl-2-((4-(pyridin-3-yl)benzyl)thio)-6-(4-(pyrrolidin-1-yl)piperidin-1-yl)pyridine-3,5-dicarbonitrile], in assay [1], the EC50 is more than 31600 nM. The results for the IC50 on DNMT1 (setting [2]) and on DNMT1 (setting [3]) were 316 to 1000 nM and 3160 nM, respectively.
In the case of `CCc1c(C#N)c(SC(C(N)=O)c2ccccc2)nc(N(C)CCn2cnnc2)c1C#N` (stereo not shown) [Example 352, 2-((6-((2-(4H-1,2,4-Triazol-4-yl)ethyl)(methyl)amino)-3,5-dicyano-4-ethylpyridin-2-yl)thio)-2-phenylacetamide], the EC50 in assay [1] was 1000 to 31600 nM. Besides, at DNMT1 (setting [2]), the IC50 is 316 to 1000 nM.
Take `CCc1c(C#N)c(SC(C(N)=O)c2ccccc2)nc(N(C)CC(=O)N2CC(O)C2)c1C#N` (stereo not shown) [Example 633, 2-((3,5-dicyano-4-ethyl-6-((2-(3-hydroxyazetidin-1-yl)-2-oxoethyl)(methyl)amino)pyridin-2-yl)thio)-2-phenylacetamide]: the EC50 in assay [1] was less than 316 nM. Besides, the “DNMT1 BioChemical (pIC50 category)” value at DNMT1 (setting [4]) is recorded as “D (Category D: ≥6.5)”.
On to `CCc1c(C#N)c(SC(C(N)=O)c2ccccc2)nc(N2CCC[C@H](N)C2)c1C#N` (stereo partly drawn) [Example 612, 2-((6-((S)-3-aminopiperidin-1-yl)-3,5-dicyano-4-ethylpyridin-2-yl)thio)-2-phenylacetamide], for which the EC50 in assay [1] is less than 316 nM. Further, the “DNMT1 BioChemical (pIC50 category)” value at DNMT1 (setting [4]) was “D (Category D: ≥6.5)”.
Turning to `CCc1c(C#N)c(SC(C(N)=O)c2ccccc2)nc(N2CCO[C@H](CNC(=O)CN)C2)c1C#N` (stereo partly drawn) [Example 592, 2-amino-N-(((2R)-4-(6-((2-amino-2-oxo-1-phenylethyl)thio)-3,5-dicyano-4-ethylpyridin-2-yl)morpholin-2-yl)methyl)acetamide], the EC50 in assay [1] is less than 316 nM. Further, at DNMT1 (setting [4]), the “DNMT1 BioChemical (pIC50 category)” value is given as “D (Category D: ≥6.5)”. For the same compound, the “average pIC50 against DNMT1” value at DNMT1 (setting [5]) is listed as more than 6.5. Further, the IC50 at DNMT1 (setting [3]) is 158 nM.
Consider `CCc1c(C#N)c(SC(C(N)=O)c2ccccc2)nc(N(C)CC(=O)N2CCC2)c1C#N` (stereo not shown) [Example 631, 2-((6-((2-(azetidin-1-yl)-2-oxoethyl)(methyl)amino)-3,5-dicyano-4-ethylpyridin-2-yl)thio)-2-phenylacetamide], for which the EC50 in assay [1] was less than 316 nM. Besides, the “DNMT1 BioChemical (pIC50 category)” value on DNMT1 (setting [4]) was “D (Category D: ≥6.5)”.
On the same counts, the results for `CCc1c(C#N)c(SCc2ccc(CNC(=O)CO)cc2)nc(N(C)C)c1C#N` [Example 278, N-(4-(((3,5-Dicyano-6-(dimethylamino)-4-ethylpyridin-2-yl)thio)methyl)benzyl)-2-hydroxyacetamide] are 1000 to 31600 nM and “D (Category D: ≥6.5)”.
The matching figures for `CCc1c(C#N)c(SC(C(N)=O)c2ccccc2)nc(N2CC(COC(=O)[C@@H](N)C(C)C)C2)c1C#N` (stereo partly shown) [Example 277]: 1000 to 31600 nM and “D (Category D: ≥6.5)”.
The matching figures for `CCc1c(C#N)c(SC(C(N)=O)c2ccccc2)nc(N(C)CC(=O)N2C[C@@H](O)[C@H](O)C2)c1C#N` (stereo partly drawn) [Example 653, 2-((3,5-dicyano-6-((2-((3R,4R)-3,4-dihydroxypyrrolidin-1-yl)-2-oxoethyl)(methyl)amino)-4-ethylpyridin-2-yl)thio)-2-phenylacetamide]: 1000 to 31600 nM and “D (Category D: ≥6.5)”.
On to `CCc1c(C#N)c(SC(C(N)=O)c2ccccc2)nc(N(C)CCN2CCC[C@H]2C)c1C#N` (stereo partly drawn) [Example 459, 2-((3,5-dicyano-4-ethyl-6-(methyl(2-((R)-2-methylpyrrolidin-1-yl)ethyl)amino)pyridin-2-yl)thio)-2-phenylacetamide], for which the EC50 in assay [1] is less than 316 nM. Also, at DNMT1 (setting [4]), the “DNMT1 BioChemical (pIC50 category)” value was “D (Category D: ≥6.5)”.
On the same counts, the results for `CCc1c(C#N)c(SC(C(N)=O)c2ccccc2)nc(N2CCC(NCC(F)F)CC2)c1C#N` (stereo not shown) [Example 554, 2-((3,5-dicyano-6-(4-((2,2-difluoroethyl)amino)piperidin-1-yl)-4-ethylpyridin-2-yl)thio)-2-phenylacetamide] are less than 316 nM and “D (Category D: ≥6.5)”.
On the same counts, the results for `CCc1c(C#N)c(SC(C(N)=O)c2ccccc2)nc(N2CCC[C@@H](N)C2)c1C#N` (stereo partly drawn) [Example 691, 2-((6-((R)-3-aminopiperidin-1-yl)-3,5-dicyano-4-ethylpyridin-2-yl)thio)-2-phenylacetamide] are 1000 to 31600 nM and “D (Category D: ≥6.5)”.
For the compound `CCc1c(C#N)c(SC(C(N)=O)c2ccccc2)nc(N2CCN(C(=O)c3ccc(Br)cc3)CC2)c1C#N` (stereo not shown) [Example 310, 2-((6-(4-(4-Bromobenzoyl)piperazin-1-yl)-3,5-dicyano-4-ethylpyridin-2-yl)thio)-2-phenylacetamide], the EC50 in assay [1] is less than 316 nM. Besides, the IC50 is 1000 to 31600 nM on DNMT1 (setting [2]); ≥ 1000 nM and 2000 nM on DNMT1 (setting [3]).
Turning to `CCc1c(C#N)c(SCc2ccc(S(N)(=O)=O)cc2)nc(N2CCC(NC(=O)CN)CC2)c1C#N` [Example 339, 2-Amino-N-(1-(3,5-dicyano-4-ethyl-6-((4-sulfamoylbenzyl)thio)pyridin-2-yl)piperidin-4-yl)acetamide hydrochloride], in assay [1], the EC50 is 1000 to 31600 nM. Besides, the “DNMT1 BioChemical (pIC50 category)” value at DNMT1 (setting [4]) is recorded as “D (Category D: ≥6.5)”.
`CCc1c(C#N)c(SCc2ccc3c(c2)CCN(C(C)=O)C3)nc(N(C)C)c1C#N` [Example 92, 2-(((2-Acetyl-1,2,3,4-tetrahydroisoquinolin-6-yl)methyl)thio)-6-(dimethylamino)-4-ethylpyridine-3,5-dicarbonitrile]: the EC50 in assay [1] is 1000 to 31600 nM. In addition, the IC50 at DNMT1 (setting [2]) was 316 to 1000 nM; on DNMT1 (setting [3]), not below 1000 nM.
`CCc1c(C#N)c(S[C@@H](C(N)=O)c2ccccc2)nc(N2CC[C@@H](N)[C@@H](F)C2)c1C#N` [Example 506, (R)-2-((6-((3S,4R)-4-amino-3-fluoropiperidin-1-yl)-3,5-dicyano-4-ethylpyridin-2-yl)thio)-2-phenylacetamide 2,2,2-trifluoroacetate]: in assay [1], the EC50 was less than 316 nM. At DNMT1 (setting [4]), the “DNMT1 BioChemical (pIC50 category)” value is recorded as “D (Category D: ≥6.5)”.
With `CCc1c(C#N)c(SC(C(N)=O)c2ccccc2)nc(N2CCOC(CN)C2)c1C#N` (stereo not shown) [Example 562, 2-((6-(2-(aminomethyl)morpholino)-3,5-dicyano-4-ethylpyridin-2-yl)thio)-2-phenylacetamide], in assay [1], the EC50 is less than 316 nM. Moreover, the “DNMT1 BioChemical (pIC50 category)” value on DNMT1 (setting [4]) is given as “D (Category D: ≥6.5)”. Besides, the “average pIC50 against DNMT1” value at DNMT1 (setting [5]) was more than 6.5. Also, on DNMT1 (setting [3]), the IC50 was 79.4 nM.
Consider `CCc1c(C#N)c(SC(C(N)=O)c2ccccc2)nc(N(C)CC(=O)NCCO)c1C#N` (stereo not shown) [Example 669, 2-((6-((2-amino-2-oxo-1-phenylethyl)thio)-3,5-dicyano-4-ethylpyridin-2-yl)(methyl)amino)-N-(2-hydroxyethyl)acetamide], for which the EC50 in assay [1] is less than 316 nM. Moreover, the “DNMT1 BioChemical (pIC50 category)” value on DNMT1 (setting [4]) was “D (Category D: ≥6.5)”.
Consider `CC(=O)NCc1ccc(CSc2nc(N3CCCN(C)CC3)c(C#N)c(-c3ccco3)c2C#N)cc1` [Example 414], for which, in assay [1], the EC50 is 1000 to 31600 nM. Besides, the IC50 on DNMT1 (setting [2]) was 316 to 1000 nM.
As for `CCc1c(C#N)c(SC(C(N)=O)c2ccccc2)nc(N(C)CCN2CCC(O)(CN)CC2)c1C#N` (stereo not shown) [Example 170, 2-((6-((2-(4-(Aminomethyl)-4-hydroxypiperidin-1-yl)ethyl)(methyl)amino)-3,5-dicyano-4-ethylpyridin-2-yl)thio)-2-phenylacetamide], the EC50 in assay [1] was 1000 to 31600 nM. Also, the “DNMT1 BioChemical (pIC50 category)” value on DNMT1 (setting [4]) is given as “D (Category D: ≥6.5)”.
For `CCc1c(C#N)c(SC(C(N)=O)c2ccccc2)nc(N2CCCN(CC(C)(C)O)CC2)c1C#N` (stereo not shown) [Example 194, 2-((3,5-Dicyano-4-ethyl-6-(4-(2-hydroxy-2-methylpropyl)-1,4-diazepan-1-yl)pyridin-2-yl)thio)-2-phenylacetamide], in assay [1], the EC50 is less than 316 nM. In addition, the IC50 on DNMT1 (setting [2]) is 316 to 1000 nM.
For `CCc1c(C#N)c(SC(C(N)=O)c2ccccc2)nc(N2CC[C@@H](N(C)C)C2)c1C#N` (stereo partly drawn) [Example 536, 2-((3,5-dicyano-6-((R)-3-(dimethylamino)pyrrolidin-1-yl)-4-ethylpyridin-2-yl)thio)-2-phenylacetamide], in assay [1], the EC50 is 316 to 1000 nM. At DNMT1 (setting [4]), the “DNMT1 BioChemical (pIC50 category)” value is reported as “D (Category D: ≥6.5)”.
As to `CCc1c(C#N)c(SC(C(N)=O)c2ccccc2)nc(N2CCC(C)(NCCO)CC2)c1C#N` (stereo not shown) [Example 643, 2-((3,5-dicyano-4-ethyl-6-(4-((2-hydroxyethyl)amino)-4-methylpiperidin-1-yl)pyridin-2-yl)thio)-2-phenylacetamide], the EC50 in assay [1] was less than 316 nM. Also, on DNMT1 (setting [4]), the “DNMT1 BioChemical (pIC50 category)” value is “D (Category D: ≥6.5)”.
On the same counts, the results for `N#Cc1c(SC(C(N)=O)c2ccccc2)nc(N2CCNC(CO)C2)c(C#N)c1C1CC1` (stereo not shown) [Example 14, 2-({3,5-dicyano-4-cyclopropyl-6-[3-(hydroxymethyl)piperazin-1-yl]pyridin-2-yl}sulfanyl)-2-phenylacetamide] are 316 to 1000 nM and “D (Category D: ≥6.5)”.
With `CCc1c(C#N)c(S[C@H](C(N)=O)c2ccccc2)nc(N2CC[C@@H](N)[C@@H](F)C2)c1C#N` [Example 531, (S)-2-((6-((3S,4R)-4-amino-3-fluoropiperidin-1-yl)-3,5-dicyano-4-ethylpyridin-2-yl)thio)-2-phenylacetamide • (0.67)2,2,2-trifluoroacetate • (0.33)methanesulfonate], in assay [1], the EC50 was less than 316 nM. In addition, the IC50 on DNMT1 (setting [2]) was 1000 to 31600 nM; at DNMT1 (setting [3]), ≥ 1000 nM and 1580 nM.
